Source: patent US20230130109A1, “MACROCYCLIC INDOLE DERIVATIVES AS INHIBITORS OF MCL-1” (priority 2020, published 2023)
Read-outs that look alike come from different tables or passages of the source.

Assays:
[1] = target: T1, Myeloid Cell Leukemia 1 (Mcl-1) (Homo sapiens, UniProt Q07820); assay: biochemical; format: binding
T1 construct: Terbium (Tb) label; means of attachment not described

[2] = tested on: MOLP-8 human multiple myeloma cell line; assay: Caspase-Glo 3/7 apoptosis induction assay in MOLP-8 cells; format: cell-based; conditions: averaged over all runs on all batches
From the text: MCL-1 is a regulator of apoptosis and is highly over-expressed in tumor cells that escape cell death. The assay evaluates the cellular potency of small-molecule compounds targeting regulators of the apoptosis pathway, primarily MCL-1, Bfl-1, Bcl-2, and other proteins of the Bcl-2 family. Protein-protein inhibitors disrupting the interaction of anti-apoptotic regulators with BH3-domain proteins initiate apoptosis.
The Caspase-Glo® 3/7 Assay is a luminescent assay that measures caspase-3 and −7 activities in purified enzyme preparations or cultures of adherent or suspension cells. The assay provides a proluminescent caspase-3/7 substrate, which contains the tetrapeptide sequence DEVD. This substrate is cleaved to release aminoluciferin, a substrate of luciferase used in the production of light. Addition of the single Caspase-Glo® 3/7 Reagent in an “add-mix-measure” format results in cell lysis, followed by caspase cleavage of the substrate and generation of a “glow-type” luminescent signal.
This assay uses the MOLP-8 human multiple myeloma cell line, which is sensitive to MCL-1 inhibition.
Cell cultures were maintained between 0.2 and 2.0×10^6 cells/mL. The cells were harvested by collection in 50 mL conical tubes. The cells were then pelleted at 500 g for 5 mins before removing supernatant and resuspension in fresh pre-warmed culture medium. The cells were counted and diluted as needed.
The assay reagent was prepared by transferring the buffer solution to the substrate vial and mixing. The solution may be stored for up to 1 week at 4° C. with negligible loss of signal.
Compounds were delivered in assay-ready plates (Proxiplate) and stored at −20° C.
Assays always include 1 reference compound plate containing reference compounds. The plates were spotted with 40 nL of compounds (0.5% DMSO final in cells; serial dilution; […] highest conc. 1/3 dilution, 10 doses, duplicates). The compounds were used at room temperature and 4 μL of pre-warmed media was added to all wells except column 2 and 23. The negative control was prepared by adding 1% DMSO in media. The positive control was prepared by adding the appropriate positive control compound in final concentration of […] in media. The plate was prepared by adding 4 μL negative control to column 23, 4 μL positive control to column 2 and 4 μL cell suspension to all wells in the plate. The plate with cells was then incubated at 37° C. for 2 hours. The assay signal reagent is the Caspase-Glo solution described above, and 8 μL was added to all wells. The plates were then sealed and measured after 30 minutes.
The activity of a test compound was calculated as percent change in apoptosis induction as follows: […]

[3] = Homo sapiens, MOLP-8, 2 h, read-out: MOLP8 Caspase-Glo AC50 (nM) LD value, MOLP-8 cells, 2 hours at 37° C., caspase-3/7 luminescence
[4] = read-out: MOLP8 Caspase-Glo AC50 (nM) LD value, MOLP-8 cells, 2 hours at 37° C., caspase-3/7 luminescence

T1 sequence (Q07820 whole entry): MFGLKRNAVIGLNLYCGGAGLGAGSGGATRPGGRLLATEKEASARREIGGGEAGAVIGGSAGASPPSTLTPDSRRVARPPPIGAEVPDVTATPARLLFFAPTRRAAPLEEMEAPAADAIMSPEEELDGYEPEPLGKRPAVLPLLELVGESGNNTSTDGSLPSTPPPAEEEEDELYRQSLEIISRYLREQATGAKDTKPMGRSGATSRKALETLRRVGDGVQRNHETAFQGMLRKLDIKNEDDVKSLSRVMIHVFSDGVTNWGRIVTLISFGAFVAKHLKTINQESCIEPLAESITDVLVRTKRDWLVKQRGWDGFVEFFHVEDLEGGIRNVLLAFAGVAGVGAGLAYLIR

Row | Structure (SMILES) | Ki ([1]; TB-MCL1 Ki (nM)) | AC50 [2, 3] | AC50 [2, 4] | Ki ([1]; read-out: TB-MCL1 Ki)
1 | COCCOCCn1nc(C)c2c1C[S+]([O-])Cc1cc(n(C)n1)CCc1cc(c3ccc(F)cc3c1)OCCCn1c(C(=O)O)c(C)c3c-2c(Cl)ccc31 (single isomer, unassigned) [Compound 49] | 0.01 nM | 141 nM | – | –
2 | COCCOCCn1nc(C)c2c1C[S+]([O-])Cc1cc(n(C)n1)CCc1cc(c3ccc(F)cc3c1)OCCCn1c(C(=O)O)c(C)c3c-2c(Cl)ccc31 (single isomer, unassigned) [Compound 50] | 0.013 nM | – | 83.6 nM | –
3 | COCCOCCn1nc2c(c1C)-c1c(Cl)ccc3c1c(C)c(C(=O)O)n3CCCOc1cc(cc3c(F)c(F)ccc13)CCc1cc(nn1C)CSC2 (single isomer, unassigned) [Compound 63] | 0.026 nM | – | 22 nM | –
4 | COCCOCCn1nc(C)c2c1CSCc1cc(n(C)n1)CCc1cc(c3ccc(F)c(F)c3c1)OCCCn1c(C(=O)O)c(C)c3c-2c(Cl)ccc31 (single isomer, unassigned) [Compound 64] | 2.33 nM | 2100 nM | – | –
5 | COCCOCCn1nc2c(c1C)-c1c(Cl)ccc3c1c(C)c(C(=O)O)n3CCCOc1cc(cc3c(F)c(F)ccc13)CCc1cc(nn1C)CSC2 (single isomer, unassigned) [Compound 65] | 2.98 nM | – | 1600 nM | –
6 | COCCOCCn1nc(C)c2c1CS(=O)(=O)Cc1cc(n(C)n1)CCc1cc(c3ccc(F)cc3c1)OCCCn1c(C(=O)O)c(C)c3c-2c(Cl)ccc31 (single isomer, unassigned) [Compound 67] | 0.017 nM | 104 nM | – | –
7 | CNCCn1nc2c(c1C)-c1c(Cl)ccc3c1c(C)c(C(=O)O)n3CCCOc1cc(cc3cc(F)ccc13)CCc1cc(nn1C)CSC2 (single isomer, unassigned) [Compound 68] | 0.008 nM | 440 nM | – | –
8 | CNCCn1nc(C)c2c1CSCc1cc(n(C)n1)CCc1cc(c3ccc(F)cc3c1)OCCCn1c(C(=O)O)c(C)c3c-2c(Cl)ccc31 (single isomer, unassigned) [Compound 69] | 0.014 nM | 402 nM | – | –
9 | Cc1c(C(=O)O)n2c3ccc(Cl)c(c13)-c1c(nn(C)c1C)CSCc1cc(n(C)n1)CCc1cc(c3ccccc3c1)OCCC2 [Compound 2] | 0.483 nM | 1260 nM | – | –
10 | Cc1c(C(=O)O)n2c3ccc(Cl)c(c13)-c1c(nn(C)c1C)CSCc1cc(n(C)n1)CCc1cc(c3c(F)cccc3c1)OCCC2 [Compound 5] | 0.411 nM | 1290 nM | – | –
11 | Cc1c(C(=O)O)n2c3ccc(Cl)c(c13)-c1c(nn(C)c1C)CS(=O)(=O)Cc1cc(n(C)n1)CCc1cc(c3ccccc3c1)OCCC2 [Compound 6] | 0.059 nM | – | 931 nM | –
12 | Cc1c(C(=O)O)n2c3ccc(Cl)c(c13)-c1c(nn(C)c1C)CS(=O)(=O)Cc1cc(n(C)n1)CCc1cc(c3ccccc3c1)OCCC2 [Compound 7] | 1.71 nM | – | 11900 nM | –
13 | Cc1c(C(=O)O)n2c3ccc(Cl)c(c13)-c1c(nn(C)c1C)CN(C)Cc1cc(n(C)n1)CCc1cc(c3ccc(F)cc3c1)OCCC2 [Compound 8] | – | – | 68.8 nM | –
14 | Cc1c(C(=O)O)n2c3ccc(Cl)c(c13)-c1c(nn(C)c1C)CN(C)Cc1cc(n(C)n1)CCc1cc(c3ccc(F)cc3c1)OCCC2 [Compound 9] | – | – | 1170 nM | –
15 | COCCOCCOCCn1nc(C)c2c1CSCc1cc(n(C)n1)CCc1cc(c3ccc(F)cc3c1)OCCCn1c(C(=O)O)c(C)c3c-2c(Cl)ccc31 [Compound 16] | 0.024 nM | 19.7 nM | – | –
16 | COCCOCCOCCn1nc2c(c1C)-c1c(Cl)ccc3c1c(C)c(C(=O)O)n3CCCOc1cc(cc3cc(F)ccc13)CCc1cc(nn1C)CSC2 [Compound 17] | 0.018 nM | 46.8 nM | – | –

Row | Structure (SMILES) | Ki ([1]; TB-MCL1 Ki (nM)) | AC50 [2, 3] | AC50 [2, 4] | Ki ([1]; read-out: TB-MCL1 Ki)
17 | COCCn1nc(C)c2c1CSCc1cc(n(C)n1)CCc1cc(c3ccc(F)cc3c1)OCCCn1c(C(=O)O)c(C)c3c-2c(Cl)ccc31 [Compound 18] | 0.025 nM | 17 nM | – | –
18 | COCCn1nc2c(c1C)-c1c(Cl)ccc3c1c(C)c(C(=O)O)n3CCCOc1cc(cc3cc(F)ccc13)CCc1cc(nn1C)CSC2 [Compound 19] | 0.035 nM | 20.7 nM | – | –
19 | COCC(COC)n1nc(C)c2c1CSCc1cc(n(C)n1)CCc1cc(c3ccc(F)cc3c1)OCCCn1c(C(=O)O)c(C)c3c-2c(Cl)ccc31 [Compound 20] | 0.026 nM | 8.8 nM | – | –
20 | COCC(COC)n1nc2c(c1C)-c1c(Cl)ccc3c1c(C)c(C(=O)O)n3CCCOc1cc(cc3cc(F)ccc13)CCc1cc(nn1C)CSC2 [Compound 21] | 0.066 nM | 49.5 nM | – | –
21 | Cc1nn(CCC2CCOCC2)c2c1-c1c(Cl)ccc3c1c(C)c(C(=O)O)n3CCCOc1cc(cc3cc(F)ccc13)CCc1cc(nn1C)CSC2 [Compound 22] | 0.029 nM | 20.1 nM | – | –
22 | Cc1c(C(=O)O)n2c3ccc(Cl)c(c13)-c1c(nn(CCC3CCOCC3)c1C)CSCc1cc(n(C)n1)CCc1cc(c3ccc(F)cc3c1)OCCC2 [Compound 23] | 0.016 nM | 30.6 nM | – | –
23 | Cc1nn(C)c2c1-c1c(Cl)ccc3c1c(C)c(C(=O)O)n3CCCOc1cc(cc3cc(F)ccc13)CCc1cc(nn1C)CSC2 [Compound 28] | 0.028 nM | 16.7 nM | – | –
24 | COCCOCCn1nc(C)c2c1CSCc1cc(n(C)n1)CCc1cc(c3ccc(F)cc3c1)OCCCn1c(C(=O)O)c(C)c3c-2c(Cl)ccc31 [Compound 31] | – | – | – | 0.015 nM
25 | Cc1nn(CCCN)c2c1-c1c(Cl)ccc3c1c(C)c(C(=O)O)n3CCCOc1cc(cc3cc(F)ccc13)CCc1cc(nn1C)CSC2 [Compound 38] | 0.019 nM | 540 nM | – | –
26 | COCCn1nc(C)c2c1CSCc1cc(n(C)n1)CCc1cc(c3ccc(Cl)cc3c1)OCCCn1c(C(=O)O)c(C)c3c-2c(Cl)ccc31 [Compound 41] | – | – | 568 nM | –
27 | COCCn1nc(C)c2c1CSCc1cc(n(C)n1)CCc1cc(c3ccc(Cl)cc3c1)OCCCn1c(C(=O)O)c(C)c3c-2c(Cl)ccc31 [Compound 47] | – | – | 2710 nM | –
28 | Cc1nn(CCOCCO)c2c1-c1c(Cl)ccc3c1c(C)c(C(=O)O)n3CCCOc1cc(cc3cc(F)ccc13)CCc1cc(nn1C)CSC2 [Compound 51] | 0.013 nM | 87.3 nM | – | –
29 | Cc1nn(CCO)c2c1-c1c(Cl)ccc3c1c(C)c(C(=O)O)n3CCCOc1cc(cc3cc(F)ccc13)CCc1cc(nn1C)CSC2 [Compound 52] | – | – | 39.4 nM | –
30 | Cc1nn(CCO)c2c1-c1c(Cl)ccc3c1c(C)c(C(=O)O)n3CCCOc1cc(cc3cc(F)ccc13)CCc1cc(nn1C)CSC2 [Compound 53] | – | – | 1250 nM | –
31 | COCCOCCn1nc(C)c2c1CSCc1cc(n(C)n1)CCc1cc(c3ccc(F)c(F)c3c1)OCCCn1c(C(=O)O)c(C)c3c-2c(Cl)ccc31 [Compound 62] | 0.027 nM | 11.3 nM | – | –
